In publication PMC12392461, “Beyond Estrogenicity: A Comparative Assessment of Bisphenol A and Its Alternatives in In Vitro Assays Questions Safety of Replacements” (Environmental Science & Technology, 2025):
Like-named read-outs stand apart in the source and are kept apart here.

Assays:
Estrogen Receptor ERα [1] = molecular target: T1, Estrogen Receptor ERα (Homo sapiens, UniProt P03372); test: aCYP oxidation followed by ERα-UAS-bla GripTite assay (TK-Ratio of effect); type: cell-based; settings: for EC10, before oxidation / EC10, after oxidation: ERα, in M; for EC10, after oxidation: after abiotic CYP catalyst; for TKERα: TKERα-Ratio
T1 sequence (P03372 311-547 limits assumed): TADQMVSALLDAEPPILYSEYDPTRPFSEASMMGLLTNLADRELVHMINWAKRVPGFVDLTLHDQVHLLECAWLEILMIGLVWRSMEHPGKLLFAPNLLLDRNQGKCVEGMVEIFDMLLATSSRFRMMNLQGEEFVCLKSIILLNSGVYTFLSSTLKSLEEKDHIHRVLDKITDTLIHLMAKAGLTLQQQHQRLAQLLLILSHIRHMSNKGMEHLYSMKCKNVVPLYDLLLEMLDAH
Procedure: Cell culture conditions and bioassay protocols including response detection are provided in Text S2.1–2.4 and Table S3. − Cell viability was determined from cell confluency using an IncuCyte S3 Live-Cell Analysis System (Sartorius AG, Essen, Germany) before and after exposure, except for SH-SY5Y cells (live–dead staining with Nuclear Green LcS1 and propidium iodide, Abcam, UK). For metabolic activation experiments, cell viability was assessed using the ToxBLAzer DualScreen Kit (Thermo Fisher Scientific) to capture the remaining toxicity in ERα-UAS-bla GripTite after treatment with the aCYP catalyst (details in Text S2.4). […]
The TK-Ratio method was used to evaluate the impact of abiotic CYP oxidation on the potency of tested compounds. […]
For experiments with the preceding aCYP activation, ERα cell viability was additionally calculated from the readout of the ToxBLAzer reagent. The ToxBLAzer assay was conducted following the manufacturer's instructions (Thermo Fisher, Waltham, MA, U.S.).13 Fluorescence intensity was recorded at the start of the assay ( Fwavelength(0h)) and after a 2-hour incubation at […]
Cell viability was assessed based on the red fluorescence signal at 665 nm, applying eq. S11 for normalization.
Cell viability = F665nm(2h, sample)-F665nm(0h, average cell-free) (S11) F665nm(2h, average unexposed)-F665nm(0h, average cell-free) […]
the specific endpoint to avoid artifacts from cytotoxicity burst. 15
S2.5: Concentration-response curves (CRCs)
To avoid bias from cytotoxicity burst at higher concentrations, all concentrations exceeding the IC10 for cytotoxicity were excluded in the CRC modeling of effects but otherwise cytotoxicity and effects were fitted with the same model equations (response stands for cytotoxicity or effect). For ERα, AhR, ARE and PPARγ preferably a linear model was fitted to the linear portion of CRC up to maximum 30% effect (eq. S12),16 but in some cases it was necessary to choose a sigmoidal log-concentration-response model, specifically a log-logistic model (eq. S13), to derive effect concentrations and cytotoxicity. For mitochondrial toxicity and neurotoxicity, the […]
are not reporter gene assays. Common practice when using log-logistic models, e.g., the model implemented in tcpl package in R,17, 18 is that the minima and maxima are also fitted and only median effect concentrations AC50 are derived. […]
concentrations (EC10) for both linear and log-sigmoidal CRCs to allow absolute comparisons at the same effect level and for TR and SR -analysis. This was done using the AutomatedBioassayScreening19 published by Braun et al.,20 which also included an algorithm to choose the best model between eq. S12 and eq. S13.
Response (%) = slope × C (S12) […]
logEC =logEC − 1 ∙log (max−min − 100%) (S14)

Estrogen Receptor ERα [2] = molecular target: T1, Estrogen Receptor ERα; test: cell-based; settings: for EC10, ERα (M): 10% of maximum effect of E2; for REPBPA,ERα (relative effect potency in relation to BPA): EC10,BPA/EC10,BPx; for SR-ScoreERα: SR-Score, sigma k=1, x=5; for Efficacy % / EC10 / REPBPA: This Study; for EC10: ERα; for REPBPA: relative estrogenic potency vs BPA; for Specificity ratio (SRbaseline) SRERα: against baseline cytotoxicity; for log(1/EC10) ERα: input of the ToxPi score, values up to 1.00; for Relative effect potency REPERα: relative to BPA; for ERα activation: at noncytotoxic concentrations
Outline: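 ERα-UAS-bla GripTite and PPARγ-UAS-bla reporter cells were seeded in assay medium with 2% charcoal-stripped FBS and held 24 h at 37 °C before dosing. Viability came from IncuCyte confluency before and after exposure. EC10 used only concentrations below IC10; Emax% is the log-logistic curve maximum relative to the reference chemical.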

[3] = ERα bioassay, dosing range all, in M
[4] = ERα bioassay, dosing range all, linear model, in M
[5] = ERα bioassay, dosing range all, log-logistic model
[6] = against experimental cytotoxicity
[7] = read-out: Emax%ERα, maximum efficacy relative to E2
[8] = Bioassay ERα, dosing range all, linear model fit
[9] = Bioassay ERα, dosing range all, log-logistic model fit
[10] = Bioassay ERα, dosing range high, in M
[11] = Bioassay ERα, dosing range high, linear model fit, in M
[12] = Bioassay ERα, dosing range high, log-logistic model fit
[13] = Bioassay ERα, dosing range low, in M
[14] = Bioassay ERα, dosing range low, linear model fit, in M
[15] = Bioassay ERα, dosing range low, log-logistic model fit
[16] = Bioassay ERα, dosing range all, in M
[17] = Bioassay ERα, dosing range all, linear model fit, in M

SMILES | EC10, before oxidation (Estrogen Receptor ERα [1]; Table S10) | EC10, ERα (M) (Estrogen Receptor ERα [2]) | SR-ScoreERα (Estrogen Receptor ERα [2]) | Efficacy % (Estrogen Receptor ERα [2]) [%] | EC10 (Estrogen Receptor ERα [2]; in M) | REPBPA (Estrogen Receptor ERα [2]) | Specificity ratio (SRbaseline) SRERα (Estrogen Receptor ERα [2]) | EC10, ERα (Estrogen Receptor ERα [2]; effect) [µM] | log(1/EC10) ERα (Estrogen Receptor ERα [2]) | Relative effect potency REPERα (Estrogen Receptor ERα [2]) | ERα activation (Estrogen Receptor ERα [2]) | Emax (Estrogen Receptor ERα [2]; [7]) [%] | EC10, linear (Estrogen Receptor ERα [2]; [8]) | logEC10 (Estrogen Receptor ERα [2]; [9]) | EC10, after oxidation (Estrogen Receptor ERα [1]; Table S10) | TKERα (Estrogen Receptor ERα [1]; Table S10) | also measured
CC1(C)C(O)C(C)(C)C1O (racemic) [r-TMCD, 2,2,4,4-Tetramethyl-1,3-cyclobutanediol (racemate)] | 1.18E-02 | 1.29 × 10^–2 M | 0.00722 | <20 | 1.29E-02 | 2.88E-05 | 0.08 | 12900 | 0.24 | 2.88e-5 |  |  |  |  |  |  | REPBPA,ERα (relative effect potency in relation to BPA) (Estrogen Receptor ERα [2]): 2.9 × 10^–5; EC10, linear transformed (Estrogen Receptor ERα [2]; [3]): 1.18E-02; EC10, linear (Estrogen Receptor ERα [2]; [4]): 1.29E-02; logEC10 (Estrogen Receptor ERα [2]; [5]): -1.93
O=S(=O)(c1ccc(O)cc1)c1ccccc1O [2,4-BPS, 2,4'-Dihydroxydiphenyl sulfone] | 3.59E-05 | 1.98 × 10^–5 M | 1.00 |  |  |  | 27.68 | 19.8 | 0.60 | 0.0187 | did not activate ERα at noncytotoxic concentrations | 19 |  |  |  |  | times less potent than BPS (ERα) (Estrogen Receptor ERα [2]): 10; REPBPA,ERα (relative effect potency in relation to BPA) (Estrogen Receptor ERα [2]): 0.019; EC10, linear transformed (Estrogen Receptor ERα [2]; [3]): 3.59E-05; EC10, linear (Estrogen Receptor ERα [2]; [4]): 5.15E-05; logEC10 (Estrogen Receptor ERα [2]; [5]): -4.70; Specificity ratio (SRcytotoxicity) SRERα (Estrogen Receptor ERα [2]; [6]): 21.81
CC(C)(c1ccc(OCC2CO2)cc1)c1ccc(OCC2CO2)cc1 (centres unmarked) [BADGE, Bisphenol A diglycidyl ether] |  |  |  |  |  |  |  |  |  |  | did not activate ERα at noncytotoxic concentrations |  | no effect | no effect |  |  | 
CC(C)(c1ccc(O)cc1)c1ccc(O)cc1 [BPA, 4,4'-(Propane-2,2-diyl)diphenol, reference compound] | 3.70E-07 | 3.70 × 10^–7 M | 1.00 | 37.53 | 3.70E-07 | 1.00E+00 | 31.86 | 0.37 | 0.82 | 1.00 |  |  |  |  | 4.48E-07 | 0.827 | estrogenic activity after aCYP oxidation (Estrogen Receptor ERα [1]): remained unchanged or decreased; EC10, after oxidation (Estrogen Receptor ERα [1]; Table S11): 3.06E-07; EC10, before oxidation (Estrogen Receptor ERα [1]; Table S11): 3.74E-07; TKERα (Estrogen Receptor ERα [1]; Table S11): 1.22; EC10, ERα (Estrogen Receptor ERα [2]): 0.37 µM; EC10, linear transformed (Estrogen Receptor ERα [2]; [10]): 1.46E-07; EC10, linear (Estrogen Receptor ERα [2]; [11]): 1.81E-07; logEC10 (Estrogen Receptor ERα [2]; [12]): -7.06; EC10, linear transformed (Estrogen Receptor ERα [2]; [13]): 3.70E-07; EC10, linear (Estrogen Receptor ERα [2]; [14]): 2.69E-07; logEC10 (Estrogen Receptor ERα [2]; [15]): -6.43; SRcytotoxicity (ERα) (Estrogen Receptor ERα [2]; human, 24 h): 115; Specificity ratio (SRcytotoxicity) SRERα (Estrogen Receptor ERα [2]; human, 24 h): 115.28; times less potent than the reference estradiol (E2) (Estrogen Receptor ERα [2]; ratio of EC10): 18700; Emax (Estrogen Receptor ERα [2]; read-out: Emax%ERα): 38%
CCC(C)(c1ccc(O)cc1)c1ccc(O)cc1 [BPB, 4,4'-(Butane-2,2-diyl)diphenol] | 1.07E-07 | 1.35 × 10^–7 M | 1.00 | 23.67 | 1.35E-07 | 2.74E+00 | 66.42 | 0.135 | 0.88 | 2.74 |  | 24 |  |  | 3.59E-07 | 0.2982 | EC10, linear transformed (Estrogen Receptor ERα [2]; [10]): 5.57E-08; EC10, linear (Estrogen Receptor ERα [2]; [11]): 8.29E-08; logEC10 (Estrogen Receptor ERα [2]; [12]): -7.27; EC10, linear transformed (Estrogen Receptor ERα [2]; [13]): 1.07E-07; EC10, linear (Estrogen Receptor ERα [2]; [14]): 1.35E-07; logEC10 (Estrogen Receptor ERα [2]; [15]): -6.97; REPBPA,ERα (relative effect potency in relation to BPA) (Estrogen Receptor ERα [2]): 3; Specificity ratio (SRcytotoxicity) SRERα (Estrogen Receptor ERα [2]; [6]): 154.61
Oc1ccc(Cc2ccc(O)cc2)cc1 [BPF, Bis(4-hydroxyphenyl)methane] | 9.67E-07 | 9.95 × 10^–7 M |  | 60.05 | 9.95E-07 | 3.72E-01 |  | 0.995 | 0.77 |  |  | 50 to 60 |  | -6.00 | 1.00E-06 | 0.964 | EC10, after oxidation (Estrogen Receptor ERα [1]; Table S11): 1.36E-06; EC10, before oxidation (Estrogen Receptor ERα [1]; Table S11): 1.26E-06; TKERα (Estrogen Receptor ERα [1]; Table S11): 0.93; EC10, linear transformed (Estrogen Receptor ERα [2]; [16]): 9.67E-07; EC10, linear (Estrogen Receptor ERα [2]; [17]): 1.45E-06; Emax%ERα (Estrogen Receptor ERα [2]; maximum efficacy relative to E2): 60%
CC(C)c1cc(C(C)(C)c2ccc(O)c(C(C)C)c2)ccc1O [BPG, 2,2-Bis(4-hydroxy-3-isopropylphenyl)propane] | 9.02E-07 | 9.02 × 10^–7 M | 0.94 | 19.01 | 9.02E-07 | 4.11E-01 | 1.60 | 0.902 | 0.77 | 0.41 |  | 19 |  | -6.04 | 3.40E-06 | 0.2649 | EC10, after oxidation (Estrogen Receptor ERα [1]; Table S11): 1.51E-05; EC10, before oxidation (Estrogen Receptor ERα [1]; Table S11): 9.71E-06; TKERα (Estrogen Receptor ERα [1]; Table S11): 0.64; EC10, linear transformed (Estrogen Receptor ERα [2]; [16]): 9.02E-07; EC10, linear (Estrogen Receptor ERα [2]; [17]): 9.31E-07; Specificity ratio (SRcytotoxicity) SRERα (Estrogen Receptor ERα [2]; [6]): 7.71
CC(C)(c1ccc(O)c(-c2ccccc2)c1)c1ccc(O)c(-c2ccccc2)c1 [BPPH, 2,2-Bis(2-hydroxy-5-biphenylyl)propane] |  |  |  |  |  |  |  |  |  |  | did not activate ERα at noncytotoxic concentrations | 0 | no effect | no effect |  |  | 
O=S(=O)(c1ccc(O)cc1)c1ccc(OCc2ccccc2)cc1 [BPS-MPE, 4-[4-(benzyloxy)benzenesulfonyl]phenol] |  |  |  |  |  |  |  |  |  |  | did not activate ERα at noncytotoxic concentrations |  | no effect | no effect |  |  | 
Cc1ccc(S(=O)(=O)NC(=O)Nc2cccc(OS(=O)(=O)c3ccc(C)cc3)c2)cc1 [Pergafast, N-(p-toluenesulfonyl)-N'-(3-(p-toluenesulfonyloxy)phenyl)urea] |  |  |  |  |  |  |  |  |  |  | did not activate ERα at noncytotoxic concentrations |  | no effect | no effect |  |  | 
Cc1cc(Cc2cc(C)c(O)c(C)c2)cc(C)c1O [TMBPF, Bis(3,5-dimethyl-4-hydroxyphenyl)methane] |  |  |  |  |  |  |  |  |  |  | did not activate ERα at noncytotoxic concentrations |  | no effect | no effect |  |  | Emax (Estrogen Receptor ERα [2]; read-out: Emax%ERα): 0%
CC1(C)[C@H](O)C(C)(C)[C@H]1O [Trans TMCD] |  |  |  |  |  |  |  |  |  |  |  |  |  |  |  |  | EC10, linear transformed (Estrogen Receptor ERα [2]; [3]): 3.18E-03; EC10, linear (Estrogen Receptor ERα [2]; [4]): 3.03E-03; logEC10 (Estrogen Receptor ERα [2]; [5]): -2.47
